pIC50: −log10 of the molar value.
Molecular target: EHMT2 (Euchromatic histone-lysine N-methyltransferase 2) (Homo sapiens (Human), UniProt Q96KQ7)
Assay: EHMT2 enzyme inhibition, LANCE TR-FRET
Assay type: biochemical
Conditions: histone H3 peptide, 1 hour at room temperature
Method: In order to analyze the enzyme inhibitory efficacy of the compounds of Examples 1 to 89, EHMT2 (Euchromatic histone-lysine N-methyltransferase 2) enzyme activity was measured using the LANCE TR-FRET™ analysis method of Perkin Elmer. When the EHMT2 enzyme is activated, the 9th lysine residue of the biotinylated-histone peptide is methylated and the EU-conjugated antibody is combined to the methylated histone peptide. Then, when the complex is irradiated with light of excitation wavelength, the complex emits light having a wavelength of 665 nm through FRET phenomenon. Accordingly, fluorescence was measured, and IC50 values were calculated through a software to evaluate the EHMT2 enzyme activity inhibitory effect of the compounds of Examples 1 to 89.
Specific experimental methods are as follows. First, the compounds of Examples 1 to 89 of 1 nM to 100 μM (4× conc.) were put into a 384 well plate (25 μL/well), and 2 μM EEMT2/G9a enzyme (4× conc.) was put into the 384 well plate (25 μL/well). The plate was then centrifuged at 1,500 rpm for 5 seconds after sealing the plate with plate sealing foil. After incubating the EHMT2/G9a enzyme, SAM, and the compounds of Examples above at room temperature for 10 minutes, 2 μM histone H3 peptide (4× conc.) was added to the 384-well plate (25 μL/well). After sealing the plate with plate sealing foil and centrifuging at 1,500 rpm for 5 seconds, an enzymatic reaction was performed at room temperature for 1 hour. Upon completion of the enzyme reaction, 5 μL each of 200 nM Ulight™-Streptavidin (4× conc.) and 8 nM Eu-antibody (4× conc.) was added to each well of the plate. The plate was sealed with plate sealing foil, centrifuged at 1,500 rpm for 5 seconds and reacted at room temperature for 1 hour. The signal values were measured with Envision (Ex 320 nm, Em 665 nm), and all background values obtained by reacting without enzyme were deleted from the measured raw data values. Then, the EHMT2 enzyme activity inhibitory effect of the compounds of Examples 1 to 89 was converted into % values, and compared with the EHMT2 activity when treated with 4% DMSO vehicle (=0 nM compound) as 100%.

Chain of EHMT2 (Euchromatic histone-lysine N-methyltransferase 2) (Q96KQ7 whole entry): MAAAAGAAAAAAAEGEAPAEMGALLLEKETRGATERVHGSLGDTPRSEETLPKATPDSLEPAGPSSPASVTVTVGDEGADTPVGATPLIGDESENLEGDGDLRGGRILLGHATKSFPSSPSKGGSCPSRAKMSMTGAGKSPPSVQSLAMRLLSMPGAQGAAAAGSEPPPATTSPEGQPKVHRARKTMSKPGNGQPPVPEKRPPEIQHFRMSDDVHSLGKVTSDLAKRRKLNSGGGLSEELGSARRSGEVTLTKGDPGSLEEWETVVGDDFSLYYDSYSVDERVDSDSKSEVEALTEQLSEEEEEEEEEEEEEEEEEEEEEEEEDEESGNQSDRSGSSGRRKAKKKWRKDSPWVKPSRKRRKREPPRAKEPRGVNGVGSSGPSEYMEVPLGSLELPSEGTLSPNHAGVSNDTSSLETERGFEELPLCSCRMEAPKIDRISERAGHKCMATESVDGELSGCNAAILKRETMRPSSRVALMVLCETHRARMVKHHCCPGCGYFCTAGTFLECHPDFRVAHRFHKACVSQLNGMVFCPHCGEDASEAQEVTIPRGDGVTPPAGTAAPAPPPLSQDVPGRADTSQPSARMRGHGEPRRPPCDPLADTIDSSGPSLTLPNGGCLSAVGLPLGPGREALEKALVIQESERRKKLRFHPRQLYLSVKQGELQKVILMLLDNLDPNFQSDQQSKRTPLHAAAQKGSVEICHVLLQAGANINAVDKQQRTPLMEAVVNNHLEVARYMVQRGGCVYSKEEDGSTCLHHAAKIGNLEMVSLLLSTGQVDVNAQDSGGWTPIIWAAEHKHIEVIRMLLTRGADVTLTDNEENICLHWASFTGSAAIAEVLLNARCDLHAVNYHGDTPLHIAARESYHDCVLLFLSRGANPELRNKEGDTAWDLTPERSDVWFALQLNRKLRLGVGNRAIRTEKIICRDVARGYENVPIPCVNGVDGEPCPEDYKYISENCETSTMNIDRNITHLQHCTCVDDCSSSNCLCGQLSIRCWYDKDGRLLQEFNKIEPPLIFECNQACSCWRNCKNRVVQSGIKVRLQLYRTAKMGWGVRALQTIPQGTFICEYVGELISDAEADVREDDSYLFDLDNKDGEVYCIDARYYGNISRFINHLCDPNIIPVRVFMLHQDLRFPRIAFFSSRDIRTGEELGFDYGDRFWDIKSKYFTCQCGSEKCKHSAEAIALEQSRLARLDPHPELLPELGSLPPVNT

pIC50 | SMILES
4.00 to 5.00 | COc1cc2c(NC3CCN(C(C)C)CC3)nc(N3CCCCC3)nc2cc1C#CCCN1CC(F)C1 [Example 33, 7-(4-(3-fluoroazetidine-1-yl)-1-butyne-1-yl)-N-(1-isopropylpiperidine-4-yl)-6-methoxy-2-(piperidine-1-yl)quinazoline-4-amine]
5.00 to 6.00 | COc1cc2c(NC3CCN(C(C)C)CC3)nc(N3CCC(F)(F)CC3)nc2cc1C#CCCN1CCCC1 [Example 35, 2-(4,4-difluoropiperidine-1-yl)-N-(1-isopropylpiperidine-4-yl)-6-methoxy-7-(4-(pyrrolidine-1-yl)-1-butyne-1-yl)quinazoline-4-amine]
> 7.00 | COc1cc2c(NC3CCN(C(C)C)CC3)nc(N3CCCCCC3)nc2cc1C#CCCN1CCCC1 [Example 36]
6.00 to 7.00 | COc1cc2c(NC3CCN(C(C)C)CC3)nc(N3CCCCCC3)nc2cc1C#CCCN1CCCCC1 [Example 37, 2-(azepane-1-yl)-N-(1-isopropylpiperidine-4-yl)-6-methoxy-7-(4-(piperidine-1-yl)-1-butyne-1-yl)quinazoline-4-amine]
6.00 to 7.00 | COc1cc2c(NC3CCN(C(C)C)CC3)nc(N3CCN(C)CC3)nc2cc1C#CCCN1CCCC1 [Example 38, N-(1-isopropylpiperidine-4-yl)-6-methoxy-2-(4-methylpiperazine-1-yl)-7-(4-(pyrrolidine-1-yl)-1-butyne-1-yl)quinazoline-4-amine]
5.00 to 6.00 | COc1cc2c(NC3CCN(C(C)C)CC3)nc(N3CCN(C)CC3)nc2cc1C#CCCN1CCCCC1 [Example 39, N-(1-Disopropylpiperidine-4-yl)-6-methoxy-2-(4-methylpiperazine-1-yl)-7-(4-(piperidine-1-yl)-1-butyne-1-yl)quinazoline-4-amine]
6.00 to 7.00 | COc1cc2c(NC3CCN(C(C)C)CC3)nc(N3CCC4(CCCC4)C3)nc2cc1C#CCCN1CCCC1 [Example 40, N-(1-isopropylpiperidine-4-yl)-6-methoxy-7-(4-(pyrrolidine-1-yl)-1-butyne-1-yl)-2-(2-azaspiro[4.4]nonane-2-yl)quinazoline-4-amine]
5.00 to 6.00 | COc1cc2c(NC3CCN(C(C)C)CC3)nc(N3CCC4(CCCC4)C3)nc2cc1C#CCCN1CCCCC1 [Example 41, N-(1-isopropylpiperidine-4-yl)-6-methoxy-7-(4-(piperidine-1-yl)-1-butyne-1-yl)-2-(2-azaspiro[4.4]nonane-2-yl)quinazoline-4-amine]
> 7.00 | COc1cc2c(NC3CCN(C(C)C)CC3)nc(N3CCCC3)nc2cc1C#CCCN1CCCCC1 [Example 43, N-(1-isopropylpiperidine-4-yl)-6-methoxy-7-(4-(piperidine-1-yl)-1-butyne-1-yl)-2-(pyrrolidine-1-yl)quinazoline-4-amine]
> 7.00 | COc1cc2c(NC3CCN(C(C)C)CC3)nc(N(C)C)nc2cc1C#CCCN1CCCCC1 [Example 44, N-(1-isopropylpiperidine-4-yl)-6-methoxy-N2,N2-dimethyl-7-(4-(piperidine-1-yl)-1-butyne-1-yl)quinazoline-2,4-diamine]
> 7.00 | COc1cc2c(NC3CCN(C(C)C)CC3)nc(N3CCCN(C)CC3)nc2cc1C#CCCN1CCCCC1 [Example 45, N-(1-isopropylpiperidine-4-yl)-6-methoxy-2-(4-methyl1,4-diazepane-1-yl)-7-(4-(piperidine-1-yl)-1-butyne-1-yl)quinazoline-4-amine]
> 7.00 | COc1cc2c(NC3CCN(C(C)C)CC3)nc(N3C[C@@H]4C[C@@H]4[C@@H]3CO)nc2cc1C#CCCN1CCCC1 [Example 46, ((1S,2R,5R)-3-(4-((1-isopropylpiperidine-4-yl)amino)-6-methoxy-7-(4-(pyrrolidine-1-yl)-1-butyne-1-yl)quinazoline-2-yl)-3-azabicyclo[3.1.0]hexane-2-yl)methanol]
> 7.00 | COc1cc2c(NC3CCN(C(C)C)CC3)nc(N3C[C@@H]4C[C@@H]4[C@@H]3CO)nc2cc1C#CCCN1CCCCC1 [Example 47, ((1S,2R,5R)-3-(4-((1-isopropylpiperidine-4-yl)amino)-6-methoxy-7-(4-(piperidine-1-yl)-1-butyne-1-yl)quinazoline-2-yl)-3-azabicyclo[3.1.0]hexane-2-yl)methanol]
> 7.00 | COc1cc2c(NC3CCN(C(C)C)CC3)nc(N3CCCN(C)CC3)nc2cc1C#CCCN1CCCC1 [Example 48, N-(1-isopropylpiperidine-4-yl)-6-methoxy-2-(4-methyl-1,4-diazepane-1-yl)-7-(4-(pyrrolidine-1-yl)-1-butyne-1-yl)quinazoline-4-amine]
> 7.00 | COc1cc2c(NC3CCN(C(C)C)CC3)nc(N3CC[C@H](F)C3)nc2cc1C#CCCN1CCCC1 [Example 57, (S)-2-(3-fluoropyrrolidine-1-yl)-N-(1-isopropylpiperidine-4-yl)-6-methoxy-7-(4-(pyrrolidine-1-yl)-1-butyne-1-yl)quinazoline-4-amine]
> 7.00 | COc1cc2c(NC3CCN(C(C)C)CC3)nc(N3CC(F)C3)nc2cc1C#CCCN1CCCC1 [Example 59, 2-(3-fluoroazetidine-1-yl)-N-(1-isopropylpiperidine-4-yl)-6-methoxy-7-(4-(pyrrolidine-1-yl)-1-butyne-1-yl)quinazoline-4-amine]

Further lines, the molecule ahead of its results:

SMILES | pIC50
COc1cc2c(NCc3ccncc3)nc(N3CCCCC3)nc2cc1C#CCCN(C)C [Example 32, 7-(4-(dimethylamino)-1-butyne-1-yl)-6-methoxy-2-(piperidine-1-yl)-N-(pyridine-4-ylmethyl)quinazoline-4-amine] | 4.00 to 5.00
COc1cc2c(NCCc3ccncc3)nc(N3CCCCC3)nc2cc1C#CCCN(C)C [Example 34] | 4.00 to 5.00
CCN1CCC(Nc2nc(N3CCCCC3)nc3cc(C#CCCN(C)C)c(OC)cc23)CC1 [Example 50, 7-(4-(dimethylamino)-1-butyne-1-yl)-N-(1-ethylpiperidine-4-yl)-6-methoxy-2-(piperidine-1-yl)quinazoline-4-amine] | > 7.00
CCN1CCC(Nc2nc(N3CCCCC3)nc3cc(C#CCCN4CCCC4)c(OC)cc23)CC1 [Example 51, N-(1-ethylpiperidine-4-yl)-6-methoxy-2-(piperidine-1-yl)-7-(4-(pyrrolidine-1-yl)-1-butyne-1-yl)quinazoline-4-amine] | > 7.00
COc1cc2c(NC3CCN(C4CC4)CC3)nc(N3CCCCC3)nc2cc1C#CCCN1CCCC1 [Example 53, N-(1-cyclopropylpiperidine-4-yl)-6-methoxy-2-(piperidine-1-yl)-7-(4-(pyrrolidine-1-yl)-1-butyne-1-yl)quinazoline-4-amine] | > 7.00
COc1cc2c(NC3CCN(C4CC4)CC3)nc(N3CCCC3)nc2cc1C#CCCN1CCCC1 [Example 54, N-(1-cyclopropylpiperidine-4-yl)-6-methoxy-2-(pyrrolidine-1-yl)-7-(4-(pyrrolidine-1-yl)-1-butyne-1-yl)quinazoline-4-amine] | > 7.00
COc1cc2c(NCCN(C)C)nc(N(C)C)nc2cc1C#CCCN1CCCC1 [Example 61, N4-(2-(dimethylamino)ethyl)-6-methoxy-N2,N2-dimethyl-7-(4-(pyrrolidine-1-yl)-1-butyne-1-yl)quinazoline-2,4-diamine] | > 7.00
COc1cc2c(NCCN(C)C)nc(N3CCCN(C)CC3)nc2cc1C#CCCN1CCCC1 [Example 62, N1-(6-methoxy-2-(4-methyl-1,4-diazepane-1-yl)-7-(4-(pyrrolidine-1-yl)-1-butyne-1-yl)quinazoline-4-yl)-N2,N2-dimethylethane-1,2-diamine] | > 7.00
CCN1CCC(Nc2nc(N(C)C)nc3cc(C#CCCN4CCCC4)c(OC)cc23)CC1 [Example 63, N4-(1-ethylpiperidine-4-yl)-6-methoxy-N2,N2-dimethyl-7-(4-(-pyrrolidine-1-yl)-1-butyne-1-yl)quinazoline-2,4-diamine] | > 7.00
CCN1CCC(Nc2nc(N3CCCC3)nc3cc(C#CCCN4CCCC4)c(OC)cc23)CC1 [Example 64, N-(1-ethylpiperidine-4-yl)-6-methoxy-2-(pyrrolidine-1-yl)-7-(4-(pyrrolidine-1-yl)-1-butyne-1-yl)quinazoline-4-amine] | > 7.00
CCN1CCC(Nc2nc(N3CCCN(C)CC3)nc3cc(C#CCCN4CCCC4)c(OC)cc23)CC1 [Example 65, N-(1-ethylpiperidine-4-yl)-6-methoxy-2-(4-methyl-1,4-diazepane-1-yl)-7-(4-(pyrrolidine-1-yl)-1-butyne-1-yl) quinazoline-4-amine] | > 7.00
COc1cc2c(NC3CCN(C(C)C)CC3)nc(N3CCCCC3)nc2cc1/C=C/CCN1CCCCC1 [Example 66, (E)-N-(1-isopropylpiperidine-4-yl)-6-methoxy-2-(piperidine-1-yl)-7-(4-(piperidine-1-yl)-1-butene-1-yl)quinazoline-4-amine] | > 7.00

Source: patent US20230365530A1, “QUINAZOLINE-2,4-DIAMINE DERIVATIVE AND PHARMACEUTICAL COMPOSITION FOR PREVENTING OR TREATING CANCER COMPRISING SAME AS ACTIVE INGREDIENT” (THE ASEAN FOUNDATION, priority 2020, published 2023)
